# Reference: patent US20090209494A1, “21-DEOXYMACBECIN ANALOGUES USEFUL AS ANTITUMOR AGENTS” (priority 2005, published 2009)
# Columns and labels:
# Solubility assay = assay type: physicochemical; details: aqueous buffer, kinetic from dmso stock; 2% DMSO in PBS pH 7.3; shaken up to six hours; maximum measurable 0.5 mM
# Experimental: Solutions (25 mM) of the test compounds were prepared by dissolving 3-5 mg aliquots in the appropriate amount of DMSO.
# Aliquots (0.01 mL) were added to 0.490 mL of pH 7.3 PBS in glass vials. For each time point, 3 PBS vials were prepared in amber glass vials. For the six hour time point triplicate aliquots in DMSO were also prepared.
# The resulting 0.5 mM solutions were shaken for up to six hours, with vials removed for analysis at 1, 3 and 6 hours. Samples were analysed by HPLC (0.025 mL injections).
# Solubility in 2% DMSO in PBS at each time point was determined by comparing total peak areas for each chromatogram with mean total peak area for chromatograms produced from the corresponding 6 hour DMSO solutions. (Mean total peak area in DMSO solutions was assumed to be equivalent to a 0.5 mM solution).
# DU145 [1] = experiment: in vitro anticancer activity in combination with compound 14, modified propidium iodide assay; assay type: cell-based, human
# Experimental: Standard agents were applied at 10 concentrations in sextuplicates in half-log increments. […] Growth inhibition is expressed as treated/control×100 (% T/C), and IC70 values for each combination were determined by plotting compound concentration versus cell viability.
# In vitro evaluation of 14 for anticancer activity when combined with standard cytotoxic agents against the tumour cell line DU145 in a monolayer proliferation assay was carried out as described in the general methods using a modified propidium iodide assay.
# SF268 = experiment: monolayer proliferation assay (modified propidium iodide assay), SF268; assay type: cell-based, human; details: 4 days exposure, median of duplicate experiments
# Experimental: (§1) In vitro evaluation of compounds for anticancer activity in a panel of 38 human tumour cell lines in a monolayer proliferation assay was carried out at the Oncotest Testing Facility, Institute for Experimental Oncology, Oncotest GmbH, Freiburg.
# (§2) The Oncotest cell lines are established from human tumor xenografts as described by Roth et al., (1999). The origin of the donor xenografts was described by Fiebig et al., (1999). Other cell lines are either obtained from the NCl (H460, SF-268, OVCAR-3, DU145, MDA-MB-231, MDA-MB-468) or purchased from DSMZ, Braunschweig, Germany (LNCAP).
# (§3) All cell lines, unless otherwise specified, were grown at 37° C. in a humidified atmosphere (95% air, 5% CO2) in a ‘ready-mix’ medium containing RPMI 1640 medium, 10% fetal calf serum, and 0.1 mg/mL gentamicin (PAA, Cölbe, Germany).
# (§4) A modified propidium iodide assay was used to assess the effects of the test compound(s) on the growth of human tumour cell lines (Dengler et al., (1995)).
# (§5) Briefly, cells were harvested from exponential phase cultures by trypsinization, counted and plated in 96 well flat-bottomed microtitre plates at a cell density dependent on the cell line (5-10.000 viable cells/well). After 24 h recovery to allow the cells to resume exponential growth, 0.010 mL of culture medium (6 control wells per plate) or culture medium containing a 21-deoxymacbecin analogue was added to the wells. Each concentration was plated in triplicate. […] Following 4 days of continuous exposure, cell culture medium with or without test compound was replaced by 0.2 mL of an aqueous propidium iodide (PI) solution (7 mg/L). To measure the proportion of living cells, cells were permeabilized by freezing the plates. After thawing the plates, fluorescence was measured using the Cytofluor 4000 microplate reader (excitation 530 nm, emission 620 nm), giving a direct relationship to the total number of viable cells.
# (§6) Growth inhibition was expressed as treated/control×100 (% T/C). For active compounds, IC70 values were estimated by plotting compound concentration versus cell viability.
# (§7) In vitro evaluation of the test compounds for anticancer activity in a panel of human tumour cell lines in a monolayer proliferation assay was carried out as described in the general methods using a modified propidium iodide assay.
# 251L = experiment: monolayer proliferation assay (modified propidium iodide assay), 251L; assay type: cell-based, human; details: 4 days exposure, median of duplicate experiments
# Experimental: as §1, §2, §3, §4, §5, §6, §7
# H460 = experiment: monolayer proliferation assay (modified propidium iodide assay), H460; assay type: cell-based, human; details: 4 days exposure, median of duplicate experiments
# Experimental: as §1, §2, §3, §4, §5, §6, §7
# MCF7 = experiment: monolayer proliferation assay (modified propidium iodide assay), MCF7; assay type: cell-based, human; details: 4 days exposure, median of duplicate experiments
# Experimental: as §1, §2, §3, §4, §5, §6, §7
# 394NL = experiment: monolayer proliferation assay (modified propidium iodide assay), 394NL; assay type: cell-based, human; details: 4 days exposure, median of duplicate experiments
# Experimental: as §1, §2, §3, §4, §5, §6, §7
# OVCAR3 = experiment: monolayer proliferation assay (modified propidium iodide assay), OVCAR3; assay type: cell-based, human; details: 4 days exposure, median of duplicate experiments
# Experimental: as §1, §2, §3, §4, §5, §6, §7
# DU145 [2] = experiment: monolayer proliferation assay (modified propidium iodide assay), DU145; assay type: cell-based, human; details: 4 days exposure, median of duplicate experiments
# Experimental: as §1, §2, §3, §4, §5, §6, §7
# LNCAP = experiment: monolayer proliferation assay (modified propidium iodide assay), LNCAP; assay type: cell-based, human; details: 4 days exposure, median of duplicate experiments
# Experimental: as §1, §2, §3, §4, §5, §6, §7
# 1138L = experiment: monolayer proliferation assay (modified propidium iodide assay), 1138L; assay type: cell-based, human; details: 4 days exposure, median of duplicate experiments
# Experimental: as §1, §2, §3, §4, §5, §6, §7
# Yeast Hsp90 = Yeast Hsp90 (Saccharomyces cerevisiae, UniProt P02829); experiment: Hsp90 binding, isothermal titration calorimetry; details: yeast Hsp90; ITC at 30° C.; 2% DMSO; read-out: Kd values for Hsp90 binding
# Sequence of Yeast Hsp90 (P02829 whole entry): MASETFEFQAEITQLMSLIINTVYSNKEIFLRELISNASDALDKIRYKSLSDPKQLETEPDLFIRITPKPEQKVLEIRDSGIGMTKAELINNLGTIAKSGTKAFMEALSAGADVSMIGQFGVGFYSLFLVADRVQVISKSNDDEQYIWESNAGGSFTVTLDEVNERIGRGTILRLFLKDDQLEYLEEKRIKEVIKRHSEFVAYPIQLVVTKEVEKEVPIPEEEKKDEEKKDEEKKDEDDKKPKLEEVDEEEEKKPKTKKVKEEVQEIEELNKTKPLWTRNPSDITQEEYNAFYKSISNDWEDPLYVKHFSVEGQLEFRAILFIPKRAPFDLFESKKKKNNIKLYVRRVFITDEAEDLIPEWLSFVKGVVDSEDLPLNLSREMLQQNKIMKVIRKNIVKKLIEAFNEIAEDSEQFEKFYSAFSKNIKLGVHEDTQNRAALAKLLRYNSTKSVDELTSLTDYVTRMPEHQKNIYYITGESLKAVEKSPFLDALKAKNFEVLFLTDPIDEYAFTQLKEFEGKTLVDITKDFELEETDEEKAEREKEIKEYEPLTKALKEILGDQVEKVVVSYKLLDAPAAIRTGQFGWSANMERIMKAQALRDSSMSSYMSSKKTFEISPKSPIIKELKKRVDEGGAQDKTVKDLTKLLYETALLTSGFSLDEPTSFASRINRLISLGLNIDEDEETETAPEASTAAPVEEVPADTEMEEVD
# Experimental: Yeast Hsp90 was dialysed against 20 mM Tris pH 7.5 containing 1 mM EDTA and 5 mM NaCl and then diluted to 0.008 mM in the same buffer, but containing 2% DMSO. The test compounds were dissolved in 100% DMSO at a concentration of 50 mM and subsequently diluted to 0.1 mM in the same buffer as for Hsp90 with 2% DMSO. Heats of interaction were measured at 30° C. on a MSC system (Microcal), with a cell volume of 1.458 mL. 10 aliquots of 0.027 mL of 0.100 mM of each test compound were injected into 0.008 mM yeast Hsp90. Heats of dilution were determined in a separate experiment by injecting the test compound into buffer containing 2% DMSO, and the corrected data fitted using a nonlinear least square curve-fitting algorithm (Microcal Origin) with three floating variables: stoichiometry, binding constant and change in enthalpy of interaction.
Compound,solubility (Solubility assay) [µM],Test/Control (%) at drug concentration (SF268; 1 μg/mL) [%],Test/Control (%) at drug concentration (SF268; 10 μg/mL) [%],Test/Control (%) at drug concentration (251L; 1 μg/mL) [%],Test/Control (%) at drug concentration (251L; 10 μg/mL) [%],Test/Control (%) at drug concentration (H460; 1 μg/mL) [%],Test/Control (%) at drug concentration (H460; 10 μg/mL) [%],Test/Control (%) at drug concentration (MCF7; 1 μg/mL) [%],Test/Control (%) at drug concentration (MCF7; 10 μg/mL) [%],Test/Control (%) at drug concentration (394NL; 1 μg/mL) [%],Test/Control (%) at drug concentration (394NL; 10 μg/mL) [%],Test/Control (%) at drug concentration (OVCAR3; 1 μg/mL) [%],Test/Control (%) at drug concentration (OVCAR3; 10 μg/mL) [%],Test/Control (%) at drug concentration (DU145 [2]; 1 μg/mL) [%],Test/Control (%) at drug concentration (DU145 [2]; 10 μg/mL) [%],Test/Control (%) at drug concentration (LNCAP; 1 μg/mL) [%],Test/Control (%) at drug concentration (LNCAP; 10 μg/mL) [%],Test/Control (%) at drug concentration (1138L; 1 μg/mL) [%],Test/Control (%) at drug concentration (1138L; 10 μg/mL) [%],Kd (Yeast Hsp90) [nM],also measured
"CO[C@H]1[C@@H](OC)C[C@H](C)[C@@H](OC)c2cc(O)cc(c2O)NC(=O)/C(C)=C/C=C\[C@H](C)[C@@H](OC(N)=O)/C(C)=C/[C@@H]1C [18,21-dihydromacbecin]",136,–,–,–,–,–,–,–,–,–,–,–,–,–,–,–,–,–,–,–,–
"O=NN(CCCl)C(=O)NC1CCCCC1 [CCNU, Cyclohexylchloroethylnitrosurea]",–,–,–,–,–,–,–,–,–,–,–,–,–,–,–,–,–,–,–,–,IC70 of standard agent (DU145 [1]; combined with 14 at 80 nM): 11.30 µg/mL; IC70 of standard agent (DU145 [1]; combined with 14 at 120 nM): 9.34 µg/mL; IC70 of standard agent (DU145 [1]; combined with 14 at 160 nM): 1.63 µg/mL; IC70 of standard agent (DU145 [1]; concentration of 14: 0 nM (standard agent alone)): 19.74 µg/mL
"CO[C@H]1C[C@H](C)Cc2cc(O)cc(c2)NC(=O)/C(C)=C/CC[C@H](C)[C@@H](OC(N)=O)/C(C)=C/[C@H](C)[C@H]1O [Compound 14, 7-O-carbamoylpre-macbecin]",≥ 500,18,16,18,16,3,4,11,9,14,13,27,28,8,6,13,12,13,14,3.2,–
"CO[C@H]1C[C@H](C)[C@@H](O)c2cc(O)cc(c2)NC(=O)/C(C)=C/CC[C@H](C)[C@@H](OC(N)=O)/C(C)=C/[C@H](C)[C@H]1O [Compound 15, 7-O-carbamoyl-15-hydroxypre-macbecin]",≥ 500,95,27,86,29,87,23,99,19,75,18,100,41,99,18,58,16,101,25,6,–
"COC1=C2C[C@@H](C)C[C@H](OC)[C@H](O)[C@@H](C)/C=C(\C)[C@H](OC(N)=O)[C@@H](OC)/C=C\C=C(/C)C(=O)NC(=CC1=O)C2=O [Geldanamycin, geldanamycin]",1.7,–,–,–,–,–,–,–,–,–,–,–,–,–,–,–,–,–,–,–,–
